Source: US11044909B2, “Composition for destruction of microalgae or sphaerocarpus” (CUREARTH, INC., priority 2015, dated 2021)
Where two headings read alike, the source gives them in different places.

Assays:
Microcystis aeruginosa [1] = assay: Microalgae-destroying effect of Compound 2, viable cell counts; format: cell-based; conditions: 0.5 μM, 1 μM, and 2 μM, observed for 2 days; FIG. 3
Protocol: To investigate a microalgae-destroying effect of Compound 2 synthesized in Example 2, culture solutions of Microcystis aeruginosa (40 mL; initial population number: 100×10^4/mL) in DMSO and BG11 medium were each treated with solutions of Compound 2 at 0.5 μM, 1 μM, and 2 μM and observed for 2 days. A culture solution of the microalgae not treated with a solution of Compound 2 was used as a control group.

[2] = system: Cochlodinium Polykrikoides; assay: Microalgae-destroying effect by IC50 measurement (cell count); format: cell-based; conditions: Margalefidinium polykrikoides, 24 h, read-out: IC50 Cochlodinium Polykrikoides
Protocol: (§1) The IC50 value was obtained according to Equation 1:
(§2) The algicidal activity of each compound was calculated using Equation 2: Algicidal activity (%)=(1−Tt/Ct)×100 <Equation 2>
(§3) In Equation 2, T (treatment group) and C (control group) represent algae densities in cell counts when each compound was inoculated and was not inoculated, respectively, and t represents the number of days which had passed after the inoculation.
(§4) First, the above-listed microalgae were cultured in a culture flask at a temperature of about 20° C. under light conditions, and a medium used was Guillard's f/2 medium which is commonly used in the art (Guillard R R L and Keller M D. Culturing dinoflagellates. In: Spector (Ed.), Dinoflagellates. New York: Academic Press; 1984, 391442).
(§5) After the cultured microalgae were transferred onto a 24-well plate, Chattonella Marina, Heterosigma circularisquama, Cochlodinium Polykrikoides, and Heterosigma akashiwo, which were in an exponential growth phase, were treated with Compounds 1 to 3, 5 to 10, 12, 13, 17 to 43, and 45 to 47 synthesized in Examples 1 to 3, 5 to 10, 12, 13, 17 to 43, and 45 to 47 at concentrations of 0.1 uM, 0.2 uM, 0.5 uM, 1 uM, 2 uM, and 5 uM, and then cultured for 1 day.
(§6) Control groups were not treated with any of the compounds synthesized in the above-identified examples. After incubation, the number of cells of each alga was counted using a Burker-Tukr hemocytometer, and IC50 values were calculated according to Equation 1 using SigmaPlot Version 11.2 software (Standard curve: the four-parameter logistic curve).

Chattonella Marina [3] = assay: as above; format: cell-based; conditions: 24 h, read-out: IC50 Chattonella Marina
Protocol: (§7) The IC50 value was obtained according to Equation 1: […]
as §4, §5, §6

[4] = system: Heterocapsa Circularisquama; assay: as above; format: cell-based; conditions: 24 h
Protocol: as §7, §4, §5, §6

Heterosigma Akashiwo [5] = assay: as above; format: cell-based; conditions: 24 h, read-out: IC50 Heterosigma Akashiwo
Protocol: as §7, §4, §5, §6

Microcystis aeruginosa [6] = assay: as above; format: cell-based; conditions: Microcystis aeruginosa, 120 h, read-out: IC50 Microcystis aeruginosa
Protocol: as §1, §2, §3, §4
Microcystis aeruginosa was treated with Compounds 1 to 3, 5 to 10, 12, 13, 17 to 43, and 45 to 51 synthesized in Examples 1 to 3, 5 to 10, 12, 13, 17 to 43, and 45 to 51 at concentrations of 0.1 uM, 0.2 uM, 0.5 uM, 1 uM, 2 uM, 5 uM, 10 uM, 15 uM, and 20 uM and then cultured for 5 days.
as §6

Danio rerio = assay: Acute toxicity test on Danio rerio; format: in vivo; conditions: 15 μM, 2 weeks; FIG. 5
Protocol: An acute toxicity test on Danio rerio (zebrafish) was performed using compounds 33 and 35 synthesized in Examples 33 and 35. In particular, 2-cm-sized Danio rerio, which had been 3 months since hatching, was acclimatized for 14 days before the start of the experiment. The Danio rerio were feed twice a day during the acclimation period. Next, solutions of Compounds 33 and […] were prepared at concentrations of 0, 5, 10, 15, 20, 25, and 30 μM. Culture solutions of the Danio rerio (10 L, initial population number: 10 zebrafish in total (1 zebrafish/L)) were treated for 2 weeks with the solutions of Compounds 33 and 35 at different concentrations to thereby perform the acute toxicity test.

Daphnia magna = assay: Acute toxicity test on Daphnia magna; format: in vivo; conditions: 5 μM, 2 days; FIG. 4
Protocol: An acute toxicity test was performed on Daphnia magna (water flea) using Compounds 33 and 35 synthesized in Examples 33 and 35. In particular, culture solutions of Daphnia magna (200 mL, 30 animals) in DMSO and M4 medium were treated with solutions of Compounds 33 and 35 at 5 μM, 10 μM, and 15 μM for 2 days.

Chattonella Marina [7] = assay: Microalgae-destroying effect by surviving cells rate measurement; format: cell-based; conditions: 1 μM, about 6 hours
Protocol: (§8) To investigate a microalgae-destroying effect of Compound 35 synthesized in Example 35, culture solutions of Chattonella Marina, Heterosigma Circularisquama, Cochlodinium Polykrikoides, and Heterosigma akashiwo (40 mL, initial population number: about 15×10^4 to 18×10^4/mL) were each treated with a solution of Compound 35 (1 μM in dimethyl sulfoxide (DMSO) and f/2 medium) for about 6 hours. A microalgae culture solution not treated with a solution of Compound 35 was used as a control group. After the treatment, viable cell ratios of the microalgae with respect to time were measured, and it was also observed whether the microalgae were destroyed.

Heterosigma Akashiwo [8] = assay: as above; format: cell-based; conditions: 1 μM, about 6 hours
Protocol: as §8

[9] = system: Heterosigma Circularisquama; assay: as above; format: cell-based; conditions: 1 μM, about 6 hours
Protocol: as §8

[10] = system: Cochlodinium Polykrikoides; assay: as above; format: cell-based; conditions: 1 μM, about 6 hours
Protocol: as §8

[11] = Table 1, 3,4-dichlorobenzylamines, 0.1-5 uM, cultured 1 day
[12] = Table 1, 3,4-dichlorobenzylamines, 0.1-5 uM, cultured 1 day, read-out: IC50 Heterocapsa Circularisquama
[13] = Table 1, 3,4-dichlorobenzylamines, 0.1-20 uM, cultured 5 days
[14] = Table 2, 0.1-5 uM, cultured 1 day
[15] = Table 2, 0.1-5 uM, cultured 1 day, read-out: IC50 Heterocapsa Circulariaquama

Structure (SMILES)	IC50 [2, 11] [nM]	IC50 (Chattonella Marina [3]; [11]) [nM]	IC50 [4, 12] [µM]	IC50 (Heterosigma Akashiwo [5]; [11]) [nM]	IC50 (Microcystis aeruginosa [6]; [13]) [µM]	IC50 [2, 14] [nM]	IC50 (Chattonella Marina [3]; [14]) [nM]	IC50 [4, 15] [µM]	IC50 (Heterosigma Akashiwo [5]; [14]) [nM]	IC50 (Microcystis aeruginosa [6]) [µM]	also measured
CCN(CC)CCCNCc1ccc(Cl)c(Cl)c1 [Compound 2, N′-(3,4-Dichloro-benzyl)-N,N-diethyl-propane-1,3-diamine]	327	2600	3.4	1300	0.57						viable cell counts of Microcystis with respect to time (Microcystis aeruginosa [1]): high algicidal effect
Clc1ccc(CNC2CCCC2)cc1Cl [Compound 33, Cyclopentyl-(3,4-dichloro-benzyl)-amine]	360	320	1.04	243	19.5						survival ratio (Danio rerio): 100%; survival ratio (Daphnia magna): about 100%
Clc1ccc(CNC2CCCCC2)cc1Cl [Compound 35, Cyclohexyl-(3,4-dichloro-benzyl)-amine]	150	290	1.14	218	14.6						survival ratio (Danio rerio): 100%; viable cell ratio with respect to time (Chattonella Marina [7]; FIG. 1): decreased with time; whether the microalgae were destroyed (microscope images) (Chattonella Marina [7]; FIG. 2): destroyed; viable cell ratio with respect to time (Heterosigma Akashiwo [8]; FIG. 1): decreased with time; whether the microalgae were destroyed (microscope images) (Heterosigma Akashiwo [8]; FIG. 2): destroyed; viable cell ratio with respect to time ([9]; FIG. 1): decreased with time; whether the microalgae were destroyed (microscope images) ([9]; FIG. 2): destroyed; viable cell ratio with respect to time ([10]; FIG. 1): decreased with time; whether the microalgae were destroyed (microscope images) ([10]; FIG. 2): destroyed
c1ccc(CNCCc2ccccn2)cc1 [Compound 37, Benzyl-(2-pyridin-2-yl-ethyl)-amine]						> 5000	340	> 5	130	> 5	
Oc1ccccc1CNCCc1ccccn1 [Compound 38, 2-[(2-Pyridin-2-yl-ethylamino)-methyl]-phenol]						> 5000	910	> 5	130	> 5	
Brc1ccccc1CNCCc1ccccn1 [Compound 39, (2-Bromo-benzyl)-(2-pyridin-2-yl-ethyl)-amine]										> 5	IC50 [2]: > 5000 nM; IC50 (Chattonella Marina [3]): 1120 nM; IC50 ([4]; read-out: IC50 Heterocapsa Circulariaquama): > 5 µM; IC50 (Heterosigma Akashiwo [5]): 280 nM
Brc1cccc(CNCCc2ccccn2)c1 [Compound 40, (3-Bromo-benzyl)-(2-pyridin-2-yl-ethyl)-amine]						3500	740	> 5	570	> 5	
Brc1ccc(CNCCc2ccccn2)cc1 [Compound 41, (4-Bromo-benzyl)-(2-pyridin-2-yl-ethyl)-amine]						> 5000	720	> 5	140	> 5	
c1ccc(CNC2CCCCCC2)cc1 [Compound 42, Benzyl-cycloheptyl-amine]						> 5000	520	> 5	150	> 5	
c1ccc(CNC2CCCCC2)cc1 [Compound 43, Benzyl-cyclohexyl-amine]						> 5000	> 5000	> 5	670	> 5	
Clc1ccc(CNC2CCc3ccccc32)cc1Cl (centres unmarked) [Compound 45, (3,4-Dichloro-benzyl)-indan-1-yl-amine]	310	1440	2	1140	> 20						
Clc1ccc(CNC2CCC2)cc1Cl [Compound 46, Cyclobutyl-(3,4-dichloro-benzyl)-amine]	1670	1130	3.08	482	15.8						
Clc1ccc(CNC2CCCCCCC2)cc1Cl [Compound 47, Cyclooctyl-(3,4-dichloro-benzyl)-amine]	100	500	1.19	340	15						
